Experimental data as given in ChEMBL document CHEMBL4261645, “Isolation, leishmanicidal evaluation and molecular docking simulations of piperidine alkaloids from Senna spectabilis” (Bioorg Med Chem, 2018).
Values after ≈ are worked out from the molar mass of the structure shown.

Tests used:
[1] = Cytotoxicity against African green monkey Vero cells after 48 hrs by resazurin dye-based spectrophotometric analysis; format: cell-based; conditions: chlorocebus sabaeus
[2] = test system: Leishmania amazonensis; assay: Leishmanicidal activity against Leishmania amazonensis PH8 promastigotes after 48 hrs by spectrophotometric analysis; format: functional, organism-based; conditions: PH8, 48 h
[3] = Log10 selectivity index, ratio of CC50 for African green monkey Vero cells to IC50 for Leishmania amazonensis PH8 promastigotes; conditions: Vero cells versus Leishmania amazonensis PH8 promastigotes
[4] = test system: Leishmania major; assay: Leishmanicidal activity against Leishmania major MHOM/SU/1973/5-ASKH promastigotes after 48 hrs by cell counting method; format: functional, organism-based

| SMILES | CC50 at 48 h [1] [µg/mL] | IC50 [2] [µg/mL] | log10 selectivity index [3] | IC50 [4] [µg/mL] |
| --- | --- | --- | --- | --- |
| CC(=O)CCCCCCCCCCCC[C@H]1CC[C@@H](OC(C)=O)[C@@H](C)N1 | 255 to 274 (≈ 694 to 744 µM) | 25.9 to 26.3 (≈ 70.6 to 71.6 µM) | 0.99 to 1.02 | – |
| CC(=O)CCCCCCCCCC[C@H]1CC[C@@H](OC(C)=O)[C@@H](C)N1 | 357 to 361 (≈ 1050 to 1060 µM) | 30.2 to 30.7 (≈ 89.1 to 90.5 µM) | 1.06 to 1.07 | – |
| C[C@@H]1[C@H](O)[C@@H](C)/C=C/C=C/C=C/C=C/C=C/C=C/C=C/[C@H](O[C@@H]2O[C@H](C)[C@@H](O)[C@H](N)[C@@H]2O)C[C@@H]2O[C@](O)(C[C@@H](O)C[C@@H](O)[C@H](O)CC[C@@H](O)C[C@@H](O)CC(=O)O[C@H]1C)C[C@H](O)[C@H]2C(=O)O [AMPHOTERICIN B] | – | 0.29 (≈ 0.314 µM) | – | – |
| CC(=O)CCCCCCCCCC[C@H]1CC[C@@H](O)[C@@H](C)N1 [CASSINE] | 249 (≈ 838 µM) | 25.2 (≈ 84.6 µM) | 0.99 | 1.6 (≈ 5.38 µM) |
| CC(=O)CCCCCCCCCCCC[C@H]1CC[C@@H](O)[C@@H](C)N1 | 66.7 (≈ 205 µM) | 15.8 (≈ 48.6 µM) | 0.62 | 24.9 (≈ 76.5 µM) |
